Source: US20060045884A1, “Vaccines for autoimmune and infectious disease” (Board of Regents, priority 2004, published 2006)
“Also recorded” adds a separate entry of the source. Where two headings read alike, the source gives them in different places.

Experiments:
peptide-loaded T2 cells = assay: Induction of primary CTL responses with peptide-pulsed T2 cells and 4-hr cytotoxicity against peptide-loaded T2 cells; format: cell-based, human; conditions: for donors in which peptide-stimulated CTL lines killed CCNE1144-152- and CCNE2144-152-pulsed T2 cells: PBMCs from 7 HLA-A2 positive normal donors; for peptide-specific lysis by CTL line generated against the MPO peptide: T2 cells loaded with 2.0 μg/mL of the same peptide; for elicitation of peptide specific CTL lines: different donors and differing peptide concentrations; for peptide-specific lysis by CTL line generated against the peptide: T2 cells loaded with 1.0 μg/mL of the same peptide, E:T 50:1 to 6:1
[1] = tested on: HLA-A2.1 positive human myeloid leukemia cells; assay: 4-hr cytotoxicity of peptide-specific CTL against leukemia cells, normal marrow and cell lines; format: cell-based; conditions: not non-transfected K562
Description: CTL cytotoxicity assay. A semi-automated minicytotoxicity assay was used to determine specific lysis as described previously (Molldrem, 2000; Molldrem et al., 1996). Briefly, effector cells were prepared in doubling dilutions from 6×10^3 to 25×10^3 cells/well and were plated in 40 μl, 60-well Terasaki trays (Robbins Scientific, Sunnyvale, Calif., USA) with six replicates per dilution. Target cells (T2 cells, marrow-derived leukemic cells, or BM from a healthy donor) at a concentration of 2×10^6 cells/ml were stained with 10 μg/ml of Calcein-AM (Molecular Probes Inc.) for 60 min at 37° C. […] Wells with target cells alone and medium alone were used for maximum (max) and minimum (min.) fluorescence emission, respectively. After 4 hr incubation at 37° C. in 5% CO2, 5 μl FluoroQuench (One Lambda Inc., Canoga Park, Calif., USA) was added to each well, and the trays were centrifuged for 1 min at 60 g before measurement of fluorescence using an automated CytoFluor II plate reader (PerSeptive Biosystems, Framingham, Mass., USA). The percentage of lysis was calculated as follows: % lysis={1−[(mean experimental mission−mean min.)/(mean max−mean min.)]}×100%.
PR1 specific CTL preferentially lyse human myeloid leukemia cells. It was next determined whether the PR1-specific CTL line was capable of lysing allogeneic human myeloid leukemia cells from HLA-A2.1 positive individuals. […]

HLA-A2.1 = HLA-A2.1 (Homo sapiens, UniProt P04439, D140Y/D185E/D98H/E176V/E277Q/G131W/G231S/I119V/I121R/I166T/I218V/L300P/L318F/N151K/N90K/P208A/P217A/Q86G/Q94H/R138H/R169H/T345S); assay: Peptide binding: HLA-A2.1 surface expression on peptide-coated T2 cells by indirect flow cytometry; conditions: for Median Channel of Fluorescence of HLA-A2 Expression on T2: background HLA-A2 without peptide 22; for peptide binding to HLA-A*0201, fluorescence intensity versus positive control peptide (Influenza B Nuclear Protein): T2 cells pulsed 18 hr; for surface HLA-A2.1 expression compared with T2 cells with no added peptide: result in words
[2] = tested on: PR1-CTL from a healthy donor; assay: Annexin V staining of PR1-CTL 16 to 18 hr after challenge with peptide-pulsed T2 cells; format: cell-based, human; conditions: for apoptosis of high avidity PR1-CTL: T2 cells pulsed with 20 μM peptide
Source text: High PR1 concentration and proteinase 3-overexpressing CML cells induce apoptosis of high avidity PR1-specific CTL. […] All high avidity PR1-CTL exposed to high dose PR1 were dead after 36 to 48 hr of co-culture.

[3] = tested on: PBMCs from HLA-A2+ CML patients; format: cell-based, human
[4] = tested on: HLA-A2+ patients with CML, AML or MDS; assay: Phase I/II PR1 peptide vaccine study; format: in vivo, human; conditions: 9 patients
Source text: To test this in refractory leukemia patients, a phase I/II vaccine study was initiated. HLA-A2^+ patients with CML (interferon-resistant or relapsed after BMT), AML (smoldering relapse or ≧2nd CR) or MDS (RAEB or RAEBt) with no detectable antibodies to proteinase 3 (no detectable cANCA) were eligible. Patients that relapsed after BMT or those ineligible for BMT were also eligible for study. Pregnant patients, HIV+ patients, and those with known vasculitis were excluded. Patients were required to have immunosuppression (i.e. cyclosporine, steroids) discontinued 4 weeks prior to study entry.
Secondarily, clinical responses were assessed by standard criteria with bone marrow biopsy, cytogenetic studies (standard chromosome banding) and molecular studies (PCR for bcr-abl or other known abnormalities such as t(15;17), inv16, etc.) 3 weeks after the last vaccination. Patients were seen and evaluated in clinic every 3 weeks during the study period. Both vialed PR1 peptide (NSC698102) and the adjuvant (Montanide ISA-51, NSC675756) were used in this study.
The overall study was divided into two parts: Phase I consisted of nine patients treated in cohorts of three at 1 of 3 dose levels of 0.25 mg, 0.5 mg, or 1.0 mg of PR1 peptide given subcutaneously in incomplete Freund's adjuvant (Montanide ISA-51) and GM-CSF 75 mg subcutaneously every 3 weeks for 3 injections. […]

[5] = tested on: PBMC from HLA-A2.1+ healthy donor; assay: PR1/HLA-A2 tetramer staining of CTL elicited from healthy donor PBMC with PR1-pulsed T2 cells; format: cell-based, human

## ILLDWLLEV [CCNE2144-152]
peptide-loaded T2 cells
  donors in which peptide-stimulated CTL lines killed CCNE1144-152- and CCNE2144-152-pulsed T2 cells: 4 of 7

## ILLDWLMEV [CCNE1144-152]
[1]
  peptide-stimulated CTL lines that killed HLA-A2 transfected K562 leukemic cell line: one of 4
peptide-loaded T2 cells
  donors in which peptide-stimulated CTL lines killed CCNE1144-152- and CCNE2144-152-pulsed T2 cells: 3 of 7

## Influenza nucleoprotein: control influenza peptide, Influenza B nucleoprotein (aa 85-94), known high binding affinity to HLA-A2.1 (KLGEFYNQMM) [reference compound]
HLA-A2.1
  Median Channel of Fluorescence of HLA-A2 Expression on T2: 194
[2]
  apoptosis of high avidity PR1-CTL: no apoptosis was observed

## KLLLALAGL [MY2]
peptide-loaded T2 cells
  peptide-specific lysis by CTL line generated against the MPO peptide: high specific lysis

## KLNDILLIQL [PR7I]
HLA-A2.1
  peptide binding to HLA-A*0201, fluorescence intensity versus positive control peptide (Influenza B Nuclear Protein): strong peptide binding

## KLNDVLLIQL [PR7V]
HLA-A2.1
  peptide binding to HLA-A*0201, fluorescence intensity versus positive control peptide (Influenza B Nuclear Protein): strong peptide binding

## LIQPFMFRL [MY5]
peptide-loaded T2 cells
  elicitation of peptide specific CTL lines: No peptide specific CTL lines could be elicited

## LLSYFKQPV [MY3]
peptide-loaded T2 cells
  elicitation of peptide specific CTL lines: No peptide specific CTL lines could be elicited

## NLVPMVATV [pp65 peptide, reference compound]
[3]
  avidity of CTLs elicited with pp65 peptide-pulsed T2 cells: high-avidity p65-specific CTLs

## RLFEQVMRI [MY4]
peptide-loaded T2 cells
  peptide-specific lysis by CTL line generated against the MPO peptide: tested similarly

## RLFPDFFTRV [PR2]
HLA-A2.1
  Median Channel of Fluorescence of HLA-A2 Expression on T2: 273
  surface HLA-A2.1 expression compared with T2 cells with no added peptide: increased surface HLA-A2.1 expression
peptide-loaded T2 cells
  peptide-specific lysis by CTL line generated against the peptide: did not demonstrate any significant cytotoxicity

## SLWRRPFNV [MY1]
peptide-loaded T2 cells
  elicitation of peptide specific CTL lines: No peptide specific CTL lines could be elicited

## VLQELNVTV [PR1, HLA-A2.1-restricted nonamer (aa 169-177) derived from proteinase 3]
HLA-A2.1; PR1 from 2 μM and 200 μM
  surface HLA-A2 expression on T2 cells versus PR1 concentration: increases linearly
HLA-A2.1
  Median Channel of Fluorescence of HLA-A2 Expression on T2: 294
  surface HLA-A2.1 expression compared with T2 cells with no added peptide: increased surface HLA-A2.1 expression
peptide-loaded T2 cells
  peptide-specific lysis by CTL line generated against the peptide: high specific lysis
[2]
  apoptosis of high avidity PR1-CTL: underwent apoptosis
[2]; high or low concentrations of PR1
  apoptosis of low avidity PR1-CTL: did not undergo apoptosis
[4]
  PR1-specific CTL immunity elicited (by tetramer staining): 6 of 9
  complete remissions: 2 patients
[3]; CML #1, #2, #3, weekly PR1 stimulation
  avidity of PR1-CTL that could be elicited from CML patients: Only low-avidity PR1-CTLs could be elicited; also recorded: Only low avidity PR1-CTL could be elicited
[3]; patient 1
  lowest PR1 concentration eliciting PR1-CTLs: ≥ 0.2 µM
[3]; patient 2
  lowest PR1 concentration eliciting low-avidity PR1-CTLs: 0.02 µM
[3]; patient 3
  lowest PR1 concentration eliciting low-avidity PR1-CTLs: 0.002 µM
[5]; 0.2 μM PR1 weekly for 28 days
  high intensity PR1/HLA-A2 tetramer-staining CTL elicited: 1.3%
[5]; 20 μM PR1
  median channel of flourescence (MCF) of tetramer staining: 93
[5]; 20 μM PR1 weekly for 28 days
  low avidity PR1-specific CTL elicited: 3.1%
[5]; 32 day-old PR1-stimulated CTL culture
  bulk culture CTL double-positive for anti-CD8 and PR1-tetramer: 4.3%
[5]; day 17 CTL line elicited against PR1
  fraction of CTL line specific for PR1 (CD8/PR1-tetramer): 2.4%
[5]; ≦0.02 μM PR1
  PR1-CTL induced: < 0.1%
